# Test results published in ChEMBL document CHEMBL1201862, “PubChem BioAssay data set” (2004).
# The source made the active and inactive calls.
# Legend:
# [1] = Luminescence Cell-Based Dose Response HTS to Identify Inhibitors of 5'UTR Stem-Loop Driven Prion Protein mRNA Translation in H4 Neuroglioblastoma Cells. [Related pubchem assays: 1827 (Project Summary), 1813 (Primary HTS)]; assay type: functional
# [2] = microbe, parasite or virus in culture; assay type: functional; conditions: Mycobacterium tuberculosis
# [3] = biological target: T1, DNA repair protein RAD52 homolog (Homo sapiens, UniProt P43351); assay type: functional, biochemical
# T1 sequence (P43351 whole entry): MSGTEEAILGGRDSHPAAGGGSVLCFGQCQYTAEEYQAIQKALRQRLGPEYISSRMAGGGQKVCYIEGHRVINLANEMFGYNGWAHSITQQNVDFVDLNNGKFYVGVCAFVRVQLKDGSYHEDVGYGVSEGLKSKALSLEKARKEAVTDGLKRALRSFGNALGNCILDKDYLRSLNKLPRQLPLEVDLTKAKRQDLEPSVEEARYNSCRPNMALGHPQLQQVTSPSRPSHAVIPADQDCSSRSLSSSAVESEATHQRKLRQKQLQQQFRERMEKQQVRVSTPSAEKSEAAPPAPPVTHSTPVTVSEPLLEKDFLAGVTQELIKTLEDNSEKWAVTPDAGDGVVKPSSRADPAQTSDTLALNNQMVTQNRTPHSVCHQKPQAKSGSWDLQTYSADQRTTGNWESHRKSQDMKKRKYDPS
# [4] = luciferase reporter signal suppression in cells – H4 neuroglioma cells, luminescence, dose response (AID 1990); assay type: functional, cell-based
# [5] = NIH-3T3 fibroblast cytotoxicity, dose response, cytotoxicity control, cell-based, fluorescence, Alamar Blue, secondary assay (AID 2327); assay type: functional;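 note: NIH-3T3 mouse fibroblasts cultured with fluconazole at 8 µg/mL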
# [6] = alpha-synuclein stem-loop luciferase translation blockers – H4 neuroglioma cells, luminescence, confirmation (AID 1988); assay type: functional, cell-based
# [7] = fluconazole-exposed Candida albicans growth modulators – fluorescence, retest, confirmation (AID 2467); assay type: functional, cell-based
# Cytochrome P450 2D6 = Cytochrome P450 2D6 (Homo sapiens, UniProt P10635);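 note: CYP2D6 member of a cytochrome P450 panel assay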
# Cytochrome P450 3A4 [8] = biological target: T2, Cytochrome P450 3A4 (Homo sapiens, UniProt P08684)
# Cytochrome P450 3A4 [9] = biological target: T2, Cytochrome P450 3A4; conditions: Potency
# [10] = DRD fibroblast viability loss – cell-based, non-viral oncogenic, luminescence, dose response (AID 1934); assay type: functional; conditions: Homo sapiens
# BJ [11] = assay: BJ-TERT fibroblast viability loss – cell-based, RAS-independent, luminescence, dose response (AID 1933); assay type: functional; conditions: Homo sapiens
# BJ [12] = assay: cells; assay type: functional, cell-based; conditions: Homo sapiens
# BJ [13] = assay: BJ-TERT-LT-ST fibroblast viability loss – cell-based, RAS-independent, luminescence, dose response (AID 1935); assay type: functional; conditions: Homo sapiens;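 note: BJ fibroblasts immortalized with TERT plus LT and ST oncogenes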
# [14] = HEK-293T viability loss after treatment – luminescence, T-cell screen hits, cytotoxicity control for TCR NF-kB inhibitor project, dose response (AID 489026); assay type: functional, cell-based;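 note: cells exposed to compound about 14 hours before the viability readout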
# [15] = Luminescence Cell-Based Dose Retest to Confirm Inhibitors of Cancer Stem Cells. [Related pubchem assays (depositor defined):AID2717, AID2721]; assay type: functional; conditions: Homo sapiens
# [16] = biological target: T3, Heat shock factor protein 1 (Mus musculus, UniProt P38532); assay: decrease of HSF1-responsive luciferase luminescence – cell-based, NIH3T3, dose retest, confirmation (AID 2382); assay type: functional;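 note: NIH3T3 fibroblasts with HSF1-driven luciferase reporter stressed by proteasome inhibitor MG132; luminescence from HSF1-driven luciferase expression after 8 hours of MG132 stress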
# T3 sequence (P38532 whole entry): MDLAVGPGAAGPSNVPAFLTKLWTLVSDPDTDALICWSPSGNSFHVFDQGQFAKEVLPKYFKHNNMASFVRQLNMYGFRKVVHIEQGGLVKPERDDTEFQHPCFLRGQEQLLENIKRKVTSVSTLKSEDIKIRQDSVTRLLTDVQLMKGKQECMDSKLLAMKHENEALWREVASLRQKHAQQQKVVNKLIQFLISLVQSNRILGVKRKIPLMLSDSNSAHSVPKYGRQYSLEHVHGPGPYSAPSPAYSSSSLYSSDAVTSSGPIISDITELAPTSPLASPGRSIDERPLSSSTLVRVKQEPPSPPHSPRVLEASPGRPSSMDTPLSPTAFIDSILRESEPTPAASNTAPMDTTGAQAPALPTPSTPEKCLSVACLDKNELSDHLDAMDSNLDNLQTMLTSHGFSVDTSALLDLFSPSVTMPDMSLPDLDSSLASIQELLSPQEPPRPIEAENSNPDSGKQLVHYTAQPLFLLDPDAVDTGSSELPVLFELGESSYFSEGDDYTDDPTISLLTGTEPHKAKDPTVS
# Cytochrome P450 2C9 = Cytochrome P450 2C9 (Homo sapiens, UniProt P11712)
# Cytochrome P450 2C19 = Cytochrome P450 2C19 (Homo sapiens, UniProt P33261); assay: Cytochrome panel assay with activity outcomes. Panel member name: p450-cyp2c19 Compounds with AC50 equal or less than 10 uM are considered active; assay type: functional; conditions: read-out: AC50
# P388 = assay: cells; assay type: functional; conditions: Mus musculus
# P388/ADR = assay: cells; assay type: functional; conditions: Mus musculus
# SN12K1 = assay: cells; assay type: functional; conditions: Homo sapiens
# [17] = reduction of Shn3 3'UTR-driven luciferase in osteoblasts – cell-based, Clone20 osteoblasts, firefly luciferase, cherry-picked, dose response (AID 624132); assay type: functional;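 note: firefly luciferase luminescence from reporter carrying the Shn3 3'UTR in osteoblasts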
# [18] = loss of viability in HepG2 cells – cell-based, CellTiter-Glo, cherry-picked, cytotoxicity control for Shn3 inhibitor project, dose response (AID 624134); assay type: functional
# [19] = non-specific 3'UTR reporter inhibition in Clone20-Shn3RL – cell-based, Renilla luciferase, cherry-picked, counter-screen for Shn3 inhibitor project, dose response (AID 624133); assay type: functional
# INS1 = assay: INS-1E survival protection against cytokine death – cell-based, luminescence, retest, dose response (AID 449756); assay type: functional; conditions: Rattus norvegicus;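 note: cell death triggered by IL-1 beta plus TNF-alpha plus IFN-gamma mixture; protective hits raise ATP signal compared with cytokine alone wells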
# [20] = viability loss in THP-1 monocytes – THP-1 cells, cytotoxicity control for Vif-APOBEC3G degradation inhibitor project, dose response (AID 1117359); assay type: functional; conditions: THP-1
# Escherichia coli = assay: microbe, parasite or virus in culture
# cells = assay type: functional
# [21] = THP-1 cell cytotoxicity, dose response, cytotoxicity control for non-replicating M. tuberculosis project (AID 489025); assay type: functional
# [22] = Vero E6 cell cytotoxicity, dose response, cytotoxicity control for non-replicating M. tuberculosis project, secondary assay (AID 492998); assay type: functional, VeroE6; conditions: Vero C1008
# [23] = system: Streptococcus sp. 'group A'; assay: Streptococcus pyogenes SK(-)GAS viability under kanamycin – luminescence, BacTiterGlo, confirmation, counter-screen for streptokinase expression inhibitor project, dose response (AID 1900); assay type: functional, organism-based
# Streptokinase A = biological target: T4, Streptokinase A (Streptococcus pyogenes serotype M1, UniProt P10520); assay: viability-normalized secreted streptokinase activity reduction – plasminogen activation absorbance, OD405, dose response (AID 1914); assay type: functional, Streptococcus pyogenes M1 GAS;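 note: secreted streptokinase activity via plasminogen activation per viability signal from cell pellet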
# T4 sequence (P10520 whole entry): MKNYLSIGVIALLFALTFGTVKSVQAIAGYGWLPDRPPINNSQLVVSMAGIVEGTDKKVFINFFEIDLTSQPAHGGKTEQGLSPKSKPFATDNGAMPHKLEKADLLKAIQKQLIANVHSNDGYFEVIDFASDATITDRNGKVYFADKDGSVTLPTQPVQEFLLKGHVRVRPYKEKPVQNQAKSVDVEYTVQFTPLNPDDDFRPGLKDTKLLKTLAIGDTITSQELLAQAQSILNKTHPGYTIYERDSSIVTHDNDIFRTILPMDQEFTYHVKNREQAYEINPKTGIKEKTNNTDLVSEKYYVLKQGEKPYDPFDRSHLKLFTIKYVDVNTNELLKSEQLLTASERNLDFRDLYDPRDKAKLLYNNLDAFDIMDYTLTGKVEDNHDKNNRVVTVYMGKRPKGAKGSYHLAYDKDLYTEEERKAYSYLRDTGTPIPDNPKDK
# Streptococcus = assay: GAS UMAA2166 growth inhibition – luminescence, BacTiterGlo, counter-screen for streptokinase expression inhibitor project, dose response (AID 1915); assay type: functional, organism-based;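 note: potency for reduction of bacterial viability or growth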
# T2 sequence (P08684 whole entry): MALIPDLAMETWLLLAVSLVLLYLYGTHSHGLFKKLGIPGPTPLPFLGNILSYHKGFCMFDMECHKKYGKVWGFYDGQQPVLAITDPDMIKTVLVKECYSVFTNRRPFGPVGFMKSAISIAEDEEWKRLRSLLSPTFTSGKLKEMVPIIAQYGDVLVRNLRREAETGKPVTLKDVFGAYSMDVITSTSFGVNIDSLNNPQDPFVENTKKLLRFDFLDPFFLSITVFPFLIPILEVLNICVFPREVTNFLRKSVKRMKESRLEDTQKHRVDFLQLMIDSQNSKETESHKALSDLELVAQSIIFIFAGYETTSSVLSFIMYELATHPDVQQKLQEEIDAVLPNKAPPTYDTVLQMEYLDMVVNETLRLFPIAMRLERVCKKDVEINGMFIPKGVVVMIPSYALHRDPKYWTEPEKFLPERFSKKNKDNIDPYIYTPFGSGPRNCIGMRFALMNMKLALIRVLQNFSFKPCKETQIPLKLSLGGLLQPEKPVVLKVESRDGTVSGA
# Sequence of Cytochrome P450 2C19 (P33261 whole entry): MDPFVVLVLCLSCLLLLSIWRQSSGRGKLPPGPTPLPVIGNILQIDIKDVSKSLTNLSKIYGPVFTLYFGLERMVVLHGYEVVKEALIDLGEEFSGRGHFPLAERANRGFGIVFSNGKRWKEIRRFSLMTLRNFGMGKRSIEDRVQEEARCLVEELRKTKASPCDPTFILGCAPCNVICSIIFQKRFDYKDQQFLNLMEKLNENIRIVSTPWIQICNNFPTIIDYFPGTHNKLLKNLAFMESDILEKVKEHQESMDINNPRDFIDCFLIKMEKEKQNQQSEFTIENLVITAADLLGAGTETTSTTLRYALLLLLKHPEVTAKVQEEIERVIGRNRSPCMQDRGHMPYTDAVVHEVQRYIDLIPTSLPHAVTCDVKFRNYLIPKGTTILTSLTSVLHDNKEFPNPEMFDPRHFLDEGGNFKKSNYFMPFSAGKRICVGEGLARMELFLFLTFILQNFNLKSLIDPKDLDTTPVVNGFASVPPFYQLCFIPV
# Sequence of Cytochrome P450 2C9 (P11712 whole entry): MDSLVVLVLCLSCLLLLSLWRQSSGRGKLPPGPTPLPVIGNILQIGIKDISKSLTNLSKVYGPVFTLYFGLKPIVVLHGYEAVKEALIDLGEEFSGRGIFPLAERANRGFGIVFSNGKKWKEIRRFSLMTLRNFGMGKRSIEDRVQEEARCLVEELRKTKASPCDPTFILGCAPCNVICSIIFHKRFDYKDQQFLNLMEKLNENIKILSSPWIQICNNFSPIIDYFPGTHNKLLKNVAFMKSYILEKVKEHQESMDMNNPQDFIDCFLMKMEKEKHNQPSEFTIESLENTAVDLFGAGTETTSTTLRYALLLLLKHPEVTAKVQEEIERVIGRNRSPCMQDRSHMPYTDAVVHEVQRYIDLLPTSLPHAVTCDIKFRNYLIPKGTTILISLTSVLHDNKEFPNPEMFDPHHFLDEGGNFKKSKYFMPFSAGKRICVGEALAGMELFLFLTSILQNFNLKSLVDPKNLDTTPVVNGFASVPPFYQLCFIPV
# Sequence of Cytochrome P450 2D6 (P10635 whole entry): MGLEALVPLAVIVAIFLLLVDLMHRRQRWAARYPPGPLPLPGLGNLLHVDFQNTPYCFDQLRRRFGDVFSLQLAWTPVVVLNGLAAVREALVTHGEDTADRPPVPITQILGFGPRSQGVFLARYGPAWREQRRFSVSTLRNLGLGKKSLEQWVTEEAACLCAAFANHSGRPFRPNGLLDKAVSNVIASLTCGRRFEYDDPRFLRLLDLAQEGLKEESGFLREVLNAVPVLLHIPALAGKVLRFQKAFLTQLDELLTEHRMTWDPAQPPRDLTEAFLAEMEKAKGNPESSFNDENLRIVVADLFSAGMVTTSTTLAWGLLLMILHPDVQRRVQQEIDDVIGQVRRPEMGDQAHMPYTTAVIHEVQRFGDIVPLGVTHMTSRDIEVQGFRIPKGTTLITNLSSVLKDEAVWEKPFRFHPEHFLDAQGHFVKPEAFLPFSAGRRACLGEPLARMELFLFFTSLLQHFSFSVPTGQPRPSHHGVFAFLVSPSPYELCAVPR
smiles,measurement,setting,value
COc1ccc(-c2nc(CN3CCN(c4cc(C)nc(C)c4)CC3)c(C)o2)c2ccccc12,EC50,[1],> 120 µM (not active)
same,CC50,[2],11.5 µM (active)
same,AC50,[3],7 µM (active)
same,EC50,[4],20.9 µM (active)
same,EC50,[5],> 160 µM (inactive)
same,EC50,[6],10.7 µM (active)
same,EC50,[7],3.22 µM (active)
O=C(c1cccc(F)c1)N1CCC2(CC1)CCN(c1ccc(-c3ccccc3)cc1)CC2,AC50,Cytochrome P450 2D6,10 µM (inconclusive)
same,AC50,Cytochrome P450 3A4 [8],inconclusive
Clc1cccc(C(Cl)(Cl)Cl)n1 [NITRAPYRIN],AC50,Cytochrome P450 3A4 [9],12.6 µM (inconclusive)
Cc1ccsc1/C=N/NC(=O)c1cc(-c2ccncc2)nc2ccccc12,EC50,[10],2.94 µM (active)
same,EC50,BJ [11],2.93 µM (inconclusive)
same,EC50,BJ [12],2.88 µM (active)
same,EC50,BJ [13],4.22 µM (inconclusive)
same,IC50,[14],47.1 µM (inactive)
same,AC50,[15],0.168 µM (active)
Nc1ccc(Cl)cc1N,AC50,Cytochrome P450 3A4 [9],7.94 µM (inconclusive)
CCC(C)(NC(=O)c1ccccn1)C(=O)NC1CCCCC1 (stereo not given),EC50,[16],> 195 µM (not active)
same,AC50,Cytochrome P450 3A4 [8],inconclusive
same,AC50,Cytochrome P450 2C9,17.8 µM (inconclusive)
same,AC50,Cytochrome P450 2C19,10 µM (inconclusive)
CCCn1c(C)nc2c(NC3CCN(Cc4ccccc4)C3)nc(C)nc21 (stereo not given),AC50,Cytochrome P450 3A4 [9],15.8 µM (inconclusive)
O=C(O)c1ccccc1/N=C/c1ccc(N(CCCl)CCCl)cc1,GI50,P388,19.2 µM (inactive)
same,GI50,P388/ADR,24.8 µM (inactive)
same,GI50,SN12K1,> 100 µM (inactive)
O=C(NNc1ccnc2cc(Cl)ccc12)C1CCCCC1,AC50,[17],< 0.26 µM (active)
same,AC50,[18],0.409 µM (active)
same,AC50,[19],1.39 µM (active)
same,AC50,INS1,1.42 µM (active)
same,IC50,[14],> 80 µM (inactive)
CNC(=O)OCc1c(CO)nc(SC)n1C,GI50,P388,> 100 µM (inactive)
same,GI50,P388/ADR,> 100 µM (inactive)
same,GI50,SN12K1,> 100 µM (inactive)
COc1ccccc1CNCC(=O)Nc1ccc(N2CCOCC2)cc1,CC50,[20],30.7 µM (active)
C[C@@H]1CN(c2c(F)c(F)c3c(=O)c(C(=O)O)cn(C4CC4)c3c2F)C[C@H](C)N1 [ORBIFLOXACIN],AC50,Escherichia coli,0.657 µM (active)
NN,GI50,P388,105 µM (inactive)
same,GI50,P388/ADR,68.5 µM (inactive)
same,GI50,SN12K1,96.8 µM (inactive)
CCOc1ccc(C(=O)CCN2CCCCCC2)cc1,CC50,[2],> 40 µM (active)
same,IC50,cells,17.2 µM (active)
same,CC50,[21],> 40 µM (active)
same,CC50,[22],> 20 µM (active)
Clc1ccc(CSc2nncn2-c2ccc3c(c2)OCCO3)cc1,EC50,[1],> 120 µM (not active)
same,EC50,[4],> 120 µM (not active)
same,EC50,[6],> 120 µM (not active)
same,IC50,[14],> 80 µM (inactive)
Cc1nn(-c2ccccc2)c2sc(C(=O)N3CCc4ccccc4C3)cc12,EC50,[23],4.55 µM (active)
same,EC50,Streptokinase A,> 150 µM (not active)
same,EC50,Streptococcus,14.6 µM (active)
same,CC50,[20],> 40 µM (active)
